Assay results reported in ChEMBL document CHEMBL4811258, “Potent Antimalarials with Development Potential Identified by Structure-Guided Computational Optimization of a Pyrrole-Based Dihydroorotate Dehydrogenase Inhibitor Series” (J Med Chem, 2021).
Active and inactive are the calls of the source. No cut-off for these calls is given here.

Key:
[1] = AUC (0 to infinity) in Swiss mouse at […], po measured up to 24 hrs by LC-MS analysis; type: ADME, organism-based; set-up: route oral, dose 2.6 mg/kg, time <=24; settings: in vivo
[2] = rat, in vivo, po, 10 mg/kg, 24 h
Plasmodium falciparum [3] = assay: Antiplasmodial activity against asexual blood stage Plasmodium falciparum D10 expressing yeast DHODH infected in human erythrocytes assessed as parasite killing in presence of proguanil; type: functional, organism-based
[4] = Binding affinity to microsome (unknown origin); type: ADME; settings: microsomes
[5] = Cmax in Swiss mouse at 24 mg/kg, po measured up to 24 hrs by LC-MS analysis; type: ADME, organism-based; set-up: route oral, dose 24 mg/kg, time <=24; settings: in vivo
[6] = Mutagenicity in Salmonella typhimurium by Ames test; type: toxicity; settings: salmonella enterica subsp. enterica serovar typhimurium
Cytochrome P450 3A4 = Cytochrome P450 3A4 (Homo sapiens, UniProt P08684)
Sequence of Cytochrome P450 3A4 (P08684 whole entry): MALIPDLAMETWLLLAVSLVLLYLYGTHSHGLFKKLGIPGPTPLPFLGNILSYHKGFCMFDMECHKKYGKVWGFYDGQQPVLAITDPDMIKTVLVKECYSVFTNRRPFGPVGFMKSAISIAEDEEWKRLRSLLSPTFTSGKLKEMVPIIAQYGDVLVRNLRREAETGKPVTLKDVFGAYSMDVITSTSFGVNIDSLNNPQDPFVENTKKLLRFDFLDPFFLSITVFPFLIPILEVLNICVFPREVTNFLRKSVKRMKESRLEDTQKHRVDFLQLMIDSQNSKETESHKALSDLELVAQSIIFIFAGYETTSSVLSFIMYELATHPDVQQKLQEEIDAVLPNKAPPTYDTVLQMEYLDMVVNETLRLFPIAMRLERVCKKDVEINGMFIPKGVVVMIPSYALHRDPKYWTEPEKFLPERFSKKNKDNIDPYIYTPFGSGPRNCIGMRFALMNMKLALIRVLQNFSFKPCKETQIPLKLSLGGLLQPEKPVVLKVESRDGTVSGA

[7] = Oral bioavailability in Sprague-Dawley rat at 17 mg/kg measured up to 24 hrs; type: ADME, organism-based; settings: in vivo
[8] = Inhibition of dog DHODH up to 100 uM; set-up: species or system Canis lupus familiaris; settings: up to 100 µM
Plasmodium falciparum [9] = assay: Antimalarial activity against Plasmodium falciparum 3D70087/N9 infected in orally dosed NOD-SCID IL2Rgamma null mouse assessed as parasitemia level in human red blood cells at 50 mg/kg, po administered days after 1 day post infection twice daily for 6 days measured on day 7 by flow cytometry; type: functional, organism-based; settings: time 6.0 day
[10] = Unbound AUC in orally dosed NOD-SCID IL2Rgamma null mouse infected with Plasmodium falciparum 3D70087/N9 administered days after 3 post infection once daily for 4 days measured on day 7 by flow cytometry; type: ADME, organism-based; settings: in vivo, po, 96 h, time 4 day
[11] = human, plasma
[12] = Plasma clearance in Sprague-Dawley rat at […], iv measured up to 24 hrs; type: ADME, organism-based; settings: dose 1.8 mg/kg
in vivo [13] = settings: Sprague-Dawley, rat, po, 17 mg/kg
[14] = target: Dihydroorotate dehydrogenase (quinone), mitochondrial (Rattus norvegicus, UniProt Q63707); assay: Inhibition of rat DHODH up to 100 uM; settings: up to 100 µM
Sequence of Dihydroorotate dehydrogenase (quinone), mitochondrial (Rattus norvegicus, UniProt Q63707) (Q63707 whole entry): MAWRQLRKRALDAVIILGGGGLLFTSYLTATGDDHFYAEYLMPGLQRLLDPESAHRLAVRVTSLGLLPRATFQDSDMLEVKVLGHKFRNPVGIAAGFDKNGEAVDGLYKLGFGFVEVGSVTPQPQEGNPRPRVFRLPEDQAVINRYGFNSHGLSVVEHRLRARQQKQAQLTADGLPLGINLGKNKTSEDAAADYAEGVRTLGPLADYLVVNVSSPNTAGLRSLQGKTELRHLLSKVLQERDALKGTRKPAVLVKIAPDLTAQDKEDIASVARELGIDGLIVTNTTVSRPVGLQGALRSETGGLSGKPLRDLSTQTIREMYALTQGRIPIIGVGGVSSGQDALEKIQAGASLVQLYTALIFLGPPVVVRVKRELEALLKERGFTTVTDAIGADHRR

[15] = Cmax in Sprague-Dawley rat at 17 mg/kg, po measured up to 24 hrs; type: ADME, organism-based; set-up: route oral, dose 17 mg/kg, time <=24; settings: in vivo
Plasmodium falciparum [16] = assay: Antiplasmodial activity against asexual blood stage Plasmodium falciparum D10 expressing yeast DHODH infected in human erythrocytes assessed as parasite killing; type: functional, organism-based
[17] = Volume of distribution at steady state in Swiss mouse at […], iv measured up to 24 hrs by LC-MS analysis; type: ADME, organism-based; settings: in vivo, dose 2.3 mg/kg, read-out: Vdss
[18] = Half life in Swiss mouse at […], po measured up to 24 hrs by LC-MS analysis; type: ADME, organism-based; settings: in vivo, dose 2.6 mg/kg
Plasmodium falciparum [19] = assay: Antiplasmodial activity against Plasmodium falciparum Dd2 Uganda infected in human erythrocytes assessed as parasite killing using albumax media measured after 72 hrs by SYBR Green assay; type: functional, organism-based; settings: Dd2, 72 h
[20] = Intrinsic clearance in mouse liver microsomes at 1 uM measured up to 4 hrs by LC-MS analysis; type: ADME, Microsome
[21] = target: Dihydroorotate dehydrogenase (quinone), mitochondrial (Mus musculus, UniProt O35435); assay: Inhibition of mouse DHODH up to 100 uM; settings: up to 100 µM
Sequence of Dihydroorotate dehydrogenase (quinone), mitochondrial (Mus musculus, UniProt O35435) (O35435 whole entry): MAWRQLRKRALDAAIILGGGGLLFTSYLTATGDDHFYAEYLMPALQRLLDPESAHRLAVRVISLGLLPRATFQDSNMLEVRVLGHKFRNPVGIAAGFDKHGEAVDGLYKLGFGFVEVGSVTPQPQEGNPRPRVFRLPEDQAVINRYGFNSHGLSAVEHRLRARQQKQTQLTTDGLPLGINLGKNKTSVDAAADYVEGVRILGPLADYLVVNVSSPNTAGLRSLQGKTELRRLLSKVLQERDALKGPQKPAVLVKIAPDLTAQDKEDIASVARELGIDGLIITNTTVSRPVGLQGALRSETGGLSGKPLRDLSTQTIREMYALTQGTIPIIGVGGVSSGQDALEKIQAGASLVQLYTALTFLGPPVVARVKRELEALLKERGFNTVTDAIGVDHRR

[22] = human, caco-2, pH 7.4
[23] = Oral bioavailability in Swiss mouse at 24 mg/kg measured up to 24 hrs by LC-MS analysis; type: ADME, organism-based; settings: in vivo
Plasmodium falciparum [24] = test system: Plasmodium falciparum
[25] = rat, in vivo, po, 10 mg/kg, 24 h; remark: listed apart in the source
[26] = rat, in vivo, po, 10 mg/kg, 24 h; remark: listed apart in the source
L1210 = assay: Cytotoxicity against mouse L1210 cells; type: cell-based
in vivo [27] = settings: Swiss, mouse, po
Plasmodium falciparum [28] = assay: Antimalarial activity against Plasmodium falciparum 3D70087/N9 infected in NOD-SCID IL2Rgamma null mouse assessed as parasitemia level at 50 mg/kg, po administered days after 3 post infection once daily for 4 days measured on day 7 by flow cytometry; type: functional, organism-based; settings: time 4.0 day
[29] = Apparent half life in Sprague-Dawley rat at 17 mg/kg, po measured up to 24 hrs; type: ADME, organism-based; settings: in vivo, read-out: t1/2(app) (converted)
[30] = Volume of distribution at steady state in Sprague-Dawley rat at […], iv measured up to 24 hrs; type: ADME, organism-based; settings: in vivo, dose 1.8 mg/kg, read-out: Vdss
[31] = mouse, plasma
Cytochrome P450 2C8 = target: T1, Cytochrome P450 2C8 (Homo sapiens, UniProt P10632)
T1 sequence (P10632 whole entry): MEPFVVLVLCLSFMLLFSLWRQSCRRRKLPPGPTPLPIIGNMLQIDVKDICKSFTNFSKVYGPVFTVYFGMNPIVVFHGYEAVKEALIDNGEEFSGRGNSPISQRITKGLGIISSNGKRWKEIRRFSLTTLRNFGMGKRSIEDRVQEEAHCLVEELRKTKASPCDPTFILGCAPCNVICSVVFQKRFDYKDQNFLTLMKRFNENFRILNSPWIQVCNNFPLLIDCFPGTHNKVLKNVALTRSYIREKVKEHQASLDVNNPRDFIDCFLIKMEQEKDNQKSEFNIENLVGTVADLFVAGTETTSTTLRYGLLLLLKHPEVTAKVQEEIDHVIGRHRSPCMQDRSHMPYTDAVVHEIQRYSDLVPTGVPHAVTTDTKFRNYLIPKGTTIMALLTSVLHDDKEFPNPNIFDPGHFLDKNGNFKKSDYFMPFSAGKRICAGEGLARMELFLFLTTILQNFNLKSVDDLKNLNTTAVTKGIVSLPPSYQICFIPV

Albumin = Albumin (Bos taurus, UniProt P02769); assay: Binding affinity to bovine serum albumin by Albumax assay; type: ADME; settings: cattle, isolated protein
Sequence of Albumin (P02769 whole entry): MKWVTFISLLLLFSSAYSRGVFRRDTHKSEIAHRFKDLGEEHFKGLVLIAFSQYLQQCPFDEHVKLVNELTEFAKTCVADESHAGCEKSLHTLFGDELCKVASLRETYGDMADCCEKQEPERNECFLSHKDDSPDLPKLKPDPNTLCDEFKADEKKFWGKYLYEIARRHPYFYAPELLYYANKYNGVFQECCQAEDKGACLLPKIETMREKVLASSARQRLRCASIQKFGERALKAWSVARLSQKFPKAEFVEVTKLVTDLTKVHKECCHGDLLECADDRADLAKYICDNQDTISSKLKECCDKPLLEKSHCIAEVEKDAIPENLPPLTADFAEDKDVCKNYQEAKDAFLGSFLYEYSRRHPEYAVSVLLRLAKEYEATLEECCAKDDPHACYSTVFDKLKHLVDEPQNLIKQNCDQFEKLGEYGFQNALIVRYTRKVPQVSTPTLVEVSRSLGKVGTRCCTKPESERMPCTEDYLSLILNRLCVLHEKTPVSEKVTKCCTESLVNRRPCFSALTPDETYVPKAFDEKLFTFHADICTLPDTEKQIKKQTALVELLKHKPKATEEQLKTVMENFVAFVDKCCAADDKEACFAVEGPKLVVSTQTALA

[32] = AUC (0 to infinity) in Swiss mouse at 24 mg/kg, po measured up to 24 hrs by LC-MS analysis; type: ADME, organism-based; set-up: route oral, dose 24 mg/kg, time <=24; settings: in vivo
[33] = Half life in Swiss mouse at 24 mg/kg, po measured up to 24 hrs by LC-MS analysis; type: ADME, organism-based; settings: in vivo
[34] = Cmax in Swiss mouse at […], po measured up to 24 hrs by LC-MS analysis; type: ADME, organism-based; set-up: route oral, dose 2.6 mg/kg, time <=24; settings: in vivo
[35] = rat, plasma
[36] = Oral bioavailability in Swiss mouse at […] measured up to 24 hrs by LC-MS analysis; type: ADME, organism-based; settings: in vivo, dose 2.6 mg/kg
[37] = AUC (0 to infinity) in Sprague-Dawley rat at 17 mg/kg, po measured up to 24 hrs; type: ADME, organism-based; set-up: route oral, dose 17 mg/kg, time <=24; settings: in vivo
HepG2 = assay: Cytotoxicity against human HepG2 cells; type: cell-based

For `Cc1c(C2(c3ccc(C(F)(F)F)nc3)CC2)c[nH]c1C(=O)NC(C)c1nc[nH]n1` (stereo in doubt; form 1), the AUC(0-inf) at 24 h [1] was 29 µM·h, the Cmax [2] was 6 µM and the EC50 (Plasmodium falciparum [3]) was greater than 10000 nM. The Activity [4] was 34.2%, the Cmax [5] was 20 µM and the Activity [6] was “Non-Toxic”. The TDI (Cytochrome P450 3A4) was “Not Active”, the bioavailability [7] was 110% and the “inhibition (INH)” value [8] was “Not Active”. For the same molecule, the Activity (Plasmodium falciparum [9]) was “Active”, the fAUC [10] was 4.1 µM·h and the PPB [11] was 92.8%. For the same molecule, the clearance at 24 h [12] was 6.8 mL/min/kg, the Tmax at 24 h (in vivo [13]) was 2.5 h and the “inhibition (INH)” value [14] was “Not Active”. It also gave a Cmax [15] of 14 µM, an EC50 (Plasmodium falciparum [16]) greater than 10000 nM and a Vd at 24 h [17] of 1.3 L/kg. The half-life at 24 h [18] was 3.4 h, the EC50 (Plasmodium falciparum [19]) was 6.9 nM and the Intrinsic clearance [20] was 11 µL/min/mg. The “inhibition (INH)” value [21] was “Not Active”, the Papp [22] was 70 10^-6 cm/s and the F [23] was 70%. The EC50 (Plasmodium falciparum [24]) was 170 nM, the F [25] was 77% and the “t1/2(app)” value [26] was 5.9 h. The Activity (L1210) was “Non-Toxic”, the Tmax at 24 h (in vivo [27]) was 4 h and the Activity (Plasmodium falciparum [28]) was “Active”. It also gave a half-life [29] of 3.7 h, a Vd at 24 h [30] of 2.1 L/kg and a PPB [31] of 92.1%. It also gave an IC50 (Cytochrome P450 2C8) greater than 20000 nM, an Activity (Albumin) of 71.9% and an AUC [32] of 250 µM·h. The t1/2 [33] was 4.5 h, the Cmax at 24 h [34] was 2.6 µM and the PPB [35] was 94.3%. For the same molecule, the bioavailability at 24 h [36] was 74%, the AUC(0-inf) [37] was 120 µM·h and the Activity (HepG2) was “Non-Toxic”.
